Here are results for 78 compounds from the OPERA property sets (Mansouri et al. 2018).

For orientation: solubility means the concentration that dissolves in the medium under given conditions. A higher solubility goes with a readily soluble substance.

≈ marks a conversion by molar mass, not a printed value.

On to `CCN(CC)c1c([N+](=O)[O-])cc(C(F)(F)F)c(N)c1[N+](=O)[O-]`, for which, for the setting “25 °C”, the solubility was 0.00341 mM (≈ 1.1 µg/mL).

The compound `CCCCC(C)=O` returned a solubility (20 °C) of 175 mM (≈ 17500 µg/mL).

For the compound `OC(O)C(Cl)(Cl)Cl`, for the setting “25 °C”, the solubility was 4790 mM (≈ 793000 µg/mL).

Turning to `CC(C)C[C@H](N)C(=O)O`, for the setting “25 °C”, the solubility is 141 mM (≈ 18500 µg/mL).

With `CN1CCN(CCCN2c3ccccc3Sc3ccc(Cl)cc32)CC1`, the solubility (24 °C) amounted to 0.04 mM (≈ 15 µg/mL).

On to `CCOC(=O)c1ccc(O)cc1`, for which the solubility (25 °C) came to 4.91 mM (≈ 816 µg/mL).

In turn, `Oc1ncnc2[nH]ncc12` registered a solubility (25 °C) of 4.18 mM (≈ 569 µg/mL).

`CCCCCC(=O)O` showed a solubility (25 °C) of 88.7 mM (≈ 10300 µg/mL).

For the compound `C[C@]12CC[C@H]3[C@@H](CCC4=CC(=O)CC[C@@H]43)[C@@H]1CC[C@@H]2O`, the solubility (25 °C) is 11.3 mM (≈ 3090 µg/mL).

In the case of `CCOCCOC(C)=O`, the solubility (20 °C) turned out to be 1870 mM (≈ 247000 µg/mL).

Where the note is “25 °C”, `CCCCC(=O)O` came in with a solubility of 384 mM (≈ 39200 µg/mL). This counts as millimolar.

Consider `Nc1ccc2ccccc2c1`, for which the solubility (25 °C) amounted to 1.32 mM (≈ 189 µg/mL).

Take `O=[N+]([O-])C(Br)(CO)CO`: the solubility (22 °C) came out at 1250 mM (≈ 250000 µg/mL).

In the case of `CC12CCC(CC1=O)C2(C)C` (stereo not drawn), the solubility (25 °C) stood at 2.63 mM (≈ 400 µg/mL).

Under “20 °C”, `O=[N+]([O-])c1ccc(Cl)c(Cl)c1` returned a solubility of 0.63 mM (≈ 121 µg/mL).

Compound `Cc1ccc(O)cc1` had a solubility (25 °C) of 199 mM (≈ 21500 µg/mL).

As for `Clc1ccc(C(c2ccc(Cl)cc2)C(Cl)(Cl)Cl)cc1`, for the setting “25 °C”, the solubility amounted to 1.55e-05 mM (≈ 0.0055 µg/mL).

`CCNc1nc(NC(C)(C)C)nc(SC)n1` registered a solubility (20 °C) of 0.104 mM (≈ 25 µg/mL).

Compound `CCNC(=O)CSP(=S)(OC)OC` had a solubility (25 °C) of 34.9 mM (≈ 8500 µg/mL).

Under “25 °C”, `c1ccc(-c2ccccc2)cc1` displayed a solubility of 0.045 mM (≈ 6.94 µg/mL). This solubility is about 780-fold lower than that of the compound before.

Compound `Nc1nc(N)nc(N)n1` had a solubility (20 °C) of 25.6 mM (≈ 3230 µg/mL).

For the compound `O=[N+]([O-])c1cccc(Cl)c1Cl`, the solubility (20 °C) was determined as 0.325 mM (≈ 62.4 µg/mL).

With `N[C@@H](Cc1c[nH]c2ccccc12)C(=O)O`, the solubility (25 °C) worked out at 65.6 mM (≈ 13400 µg/mL). This lies in the millimolar range.

Regarding `O=C(O)c1cccc([N+](=O)[O-])c1`, the solubility (25 °C) worked out at 21.4 mM (≈ 3580 µg/mL).

In turn, `Oc1cccc(O)c1O` gave a solubility (25 °C) of 4020 mM (≈ 507000 µg/mL).

In the case of `CC(C)(C)NCC(O)c1ccc(O)c(CO)c1` (stereo not drawn), the solubility worked out at 59.3 mM (≈ 14200 µg/mL).

`C1=CCCCC1` yielded a solubility (25 °C) of 2.59 mM (≈ 213 µg/mL).

Consider `CC[N+](=O)[O-]`, for which the solubility (25 °C) was 626 mM (≈ 47000 µg/mL).

For the setting “24 °C”, `Cc1ccc2cc3c(ccc4ccccc43)cc2c1` showed a solubility of 0.000153 mM (≈ 0.037 µg/mL).

On to `Cc1cc(O)cc(C)c1Cl`, for which the solubility (20 °C) worked out at 1.6 mM (≈ 250 µg/mL).

Compound `CCC(C)CC` gave a solubility (25 °C) of 0.208 mM (≈ 17.9 µg/mL).

Take `c1ccc(Nc2ccccc2)cc1`: the solubility (20 °C) amounted to 0.313 mM (≈ 53 µg/mL).

Regarding `Cc1cccc(O)c1`, the solubility (25 °C) was determined as 210 mM (≈ 22700 µg/mL).

`O=C(O)c1cccnc1C(=O)O` displayed a solubility (25 °C) of 65.8 mM (≈ 11000 µg/mL). Against the preceding compound, the solubility is about 3.2-fold lower.

For the compound `CC[C@H](C)[C@H](N)C(=O)O` (racemic), the solubility (24 °C) stood at 262 mM (≈ 34400 µg/mL).

For `CC(Oc1cc(Cl)c(Cl)cc1Cl)C(=O)O` (stereo not drawn), for the setting “23 °C”, the solubility came out at 0.341 mM (≈ 92 µg/mL).

Take `O=[N+]([O-])c1ccc(Cl)cc1`: the solubility (20 °C) amounted to 1.43 mM (≈ 225 µg/mL).

Compound `CCC1(c2ccccc2)CCC(=O)NC1=O` (stereo not drawn) showed a solubility (30 °C) of 4.6 mM (≈ 999 µg/mL).

With `CCNc1nc(NC(C)C)nc(SC)n1`, for the setting “25 °C”, the solubility was 0.919 mM (≈ 209 µg/mL).

Turning to `COP(=S)(OC)SCC(=O)N(C)C=O`, under “24 °C”, the solubility was 10.1 mM (≈ 2600 µg/mL).

In turn, `Nc1ccccc1` had a solubility (25 °C) of 387 mM (≈ 36000 µg/mL).

In the case of `BrCCCBr`, the solubility (20 °C) is 8.42 mM (≈ 1700 µg/mL).

The compound `O=C(Nc1cccc(Cl)c1)OCC#CCCl` returned a solubility (25 °C) of 0.0426 mM (≈ 11 µg/mL). This counts as double-digit micromolar.

The compound `CC1(C)C(=O)N(Cl)C(=O)N1Cl` returned a solubility (20 °C) of 2.54 mM (≈ 500 µg/mL). This lies in the millimolar range.

For `Cn1cnc2c1c(=O)[nH]c(=O)n2C`, the solubility (25 °C) stood at 1.83 mM (≈ 330 µg/mL).

`CCCCCCCCC=O`: the solubility (25 °C) was 0.675 mM (≈ 96 µg/mL).

As to `CCCCCCC(C)=O`, the solubility (20 °C) turned out to be 7.02 mM (≈ 900 µg/mL).

For `O=Cc1ccco1`, the solubility (25 °C) stood at 801 mM (≈ 77000 µg/mL).

Regarding `C[C@]12CCC(=O)C=C1CC[C@@H]1[C@@H]2CC[C@@]2(C)[C@H]1CC[C@]2(C)O`, for the setting “25 °C”, the solubility was 0.112 mM (≈ 33.9 µg/mL).

As to `O=Cc1ccccc1`, the solubility (25 °C) turned out to be 61.9 mM (≈ 6570 µg/mL).

Regarding `COc1cc(Cl)c(OC)cc1Cl`, the solubility (25 °C) amounted to 0.0386 mM (≈ 8 µg/mL).

For `CCOP(=S)(OCC)Oc1nc(Cl)c(Cl)cc1Cl`, the solubility (24 °C) was found to be 0.00319 mM (≈ 1.12 µg/mL). That is a single-digit micromolar value.

The compound `CC(C)OC(=O)Nc1ccccc1` came in with a solubility (25 °C) of 0.999 mM (≈ 179 µg/mL).

For the setting “25 °C”, `CCCC(C)(COC(N)=O)COC(N)=O` registered a solubility of 21.5 mM (≈ 4700 µg/mL).

The compound `CNC(=O)Oc1cc(C(C)(C)C)cc(C(C)(C)C)c1` yielded a solubility (20 °C) of 0.057 mM (≈ 15 µg/mL).

Compound `CC(C)(C)C` had a solubility (25 °C) of 0.46 mM (≈ 33.2 µg/mL).

`CC(C)Br` yielded a solubility (20 °C) of 24.6 mM (≈ 3020 µg/mL).

For the compound `N[C@@H](Cc1ccccc1)C(=O)O` (racemic), under “22 °C”, the solubility is 134 mM (≈ 22100 µg/mL).

Compound `S=C=S` gave a solubility (20 °C) of 15.5 mM (≈ 1180 µg/mL). This lies in the millimolar range.

With `ClC(Cl)=C(c1ccc(Cl)cc1)c1ccc(Cl)cc1`, the solubility (25 °C) was 0.000126 mM (≈ 0.04 µg/mL).

In turn, `C#C` returned a solubility (20 °C) of 46.1 mM (≈ 1200 µg/mL). That is a millimolar value.

`Cn1c(=O)c2[nH]cnc2n(C)c1=O` showed a solubility (25 °C) of 40.9 mM (≈ 7360 µg/mL). In other words, the millimolar range.

Regarding `CCCCCCCO`, the solubility (25 °C) was determined as 14.4 mM (≈ 1670 µg/mL). Against the preceding compound, the solubility is about 2.8-fold lower.

`CCCBr`: the solubility (20 °C) came out at 19.9 mM (≈ 2450 µg/mL). This counts as millimolar.

`NC(=O)NC1NC(=O)NC1=O` (stereo not drawn): the solubility was found to be 33.3 mM (≈ 5260 µg/mL).

As for `CCC1(CCC(C)C)C(=O)NC(=O)NC1=O`, the solubility (25 °C) came to 2.67 mM (≈ 603 µg/mL). This counts as millimolar.

Where the note is “25 °C”, `Clc1ccc(Cl)cc1` showed a solubility of 0.553 mM (≈ 81.3 µg/mL). This solubility is about 4.8-fold lower than that of the compound before.

Take `O=C1OC(c2ccc(O)cc2)(c2ccc(O)cc2)c2ccccc21`: the solubility came to 1.26 mM (≈ 400 µg/mL).

`CCCCCCCCCCCCCCCCO` returned a solubility (25 °C) of 9.69e-05 mM (≈ 0.0235 µg/mL).

As to `CCOP(=S)(OCC)SCC(=O)NC(C)C`, the solubility (20 °C) was 8.76 mM (≈ 2500 µg/mL).

`O=[N+]([O-])c1cccc(Cl)c1` gave a solubility (20 °C) of 1.73 mM (≈ 273 µg/mL).

Where the note is “20 °C”, `C#CC(C)OC(=O)Nc1cccc(Cl)c1` (stereo not drawn) showed a solubility of 2.41 mM (≈ 540 µg/mL).

With `ClC1(Cl)C2(Cl)C3(Cl)C4(Cl)C(Cl)(Cl)C5(Cl)C3(Cl)C1(Cl)C5(Cl)C24Cl` (stereo not drawn), for the setting “25 °C”, the solubility amounted to 0.000156 mM (≈ 0.085 µg/mL).

The compound `CCOC(=O)c1ccc(N)cc1` returned a solubility (30 °C) of 7.93 mM (≈ 1310 µg/mL).

`O=C(O)c1ccccc1C(=O)O` yielded a solubility (25 °C) of 42.1 mM (≈ 6990 µg/mL). That is a millimolar value.

The compound `Nc1ccc(C(=O)O)cc1` displayed a solubility (30 °C) of 44.6 mM (≈ 6110 µg/mL).

For the compound `CC(=O)OC(C)=O`, the solubility (20 °C) worked out at 1180 mM (≈ 120000 µg/mL).

With `CCCCc1ccccc1`, the solubility (25 °C) stood at 0.0879 mM (≈ 11.8 µg/mL).
